Laboratory results as given in US7514422B2, “5HT2c receptor modulators” (Arena Pharmaceuticals, Inc., priority 2002, dated 2009).

Molecular target: T1, human 5-HT2c receptor (Homo sapiens, UniProt P28335)
T1 construct: expressed in transfected cells; host or cells: HEK293
T1 sequence (P28335 33-458): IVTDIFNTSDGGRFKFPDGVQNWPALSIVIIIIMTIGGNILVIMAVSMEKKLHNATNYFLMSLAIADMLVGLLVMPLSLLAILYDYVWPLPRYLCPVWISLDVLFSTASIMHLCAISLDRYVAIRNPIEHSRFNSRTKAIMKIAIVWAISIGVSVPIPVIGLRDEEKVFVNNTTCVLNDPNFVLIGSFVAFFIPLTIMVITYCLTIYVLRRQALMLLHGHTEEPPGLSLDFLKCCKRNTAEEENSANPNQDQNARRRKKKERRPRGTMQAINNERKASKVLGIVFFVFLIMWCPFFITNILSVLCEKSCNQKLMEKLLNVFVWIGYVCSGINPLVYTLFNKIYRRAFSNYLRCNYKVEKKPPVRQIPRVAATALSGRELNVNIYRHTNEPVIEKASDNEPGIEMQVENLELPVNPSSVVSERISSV
Assay: Intracellular IP3 Accumulation Assay
Format: cell-based
Details: HEK293 cells transfected with human 5-HT2c receptor; averages of at least two trials; read-out: 5-HT2C (IC50) IP Accumulation Assay
Experimental: HEK293 cells were transfected in 15 cm sterile dishes with or without (control) 16 ug of human 5-HT2c receptor cDNA using 25 ul of lipofectamine. Cells were then incubated for 34 hours at 37° C/5% CO2 and then transfection media was removed and replaced with 100 ul of DMEM. Cells were then plated onto […] sterile dishes. The next day cells were plated into 96 well PDL microtiter plates at a density of 55K/0.2 ml. Six hours latter, media was exchanged with [^3H]inositol (0.25 uCi/well) in inositol free DMEM and plates were incubated at 37° C./5% CO2 overnight. The next day, wells were aspirated and 200 ul of DMEM containing test compound, 10 uM pargyline, and 10 mM LiCl was added to appropriate wells. Plates were then incubated at 37° C./5% CO2 for three hours followed aspiration and by addition of fresh ice cold stop solution (1M KOH, 19 mM Na-borate, 3.8 mM EDTA) to each well. Plates were kept on ice for 5-10 min and the wells were neutralized by addition of 200 ul of fresh ice cold neutralization solution (7.5% HCl). Plates were then frozen until further processing is desired. The lysate was then transferred into 1.5 ml Eppendorf tubes and 1 ml of chloroform/methanol (1:2) was added/tube. The solution was vortexed for 15 seconds and the upper phase was applied to a Biorad AG1-X8™ anion exchange resin (100-200 mesh). First, the resin was washed with water at 1:1.25 W/V and 0.9 ml of upper phase was loaded onto the column. The column was then washed with 10 ml of 5 mM myo-inositol and 10 ml of 5 mM Na-borate/60 mM Na-formate. The inositol tris phosphates were eluted into scintillation vials containing 10 ml of scintillation cocktail with 2 ml of 0.1 M formic acid/1 M ammonium formate. The columns were regenerated by washing with 10 ml of 0.1 M formic acid/3M ammonium formate and rinsed twice with dd H2O and stored at 4° C. in water.

| SMILES | IC50 [nM] |
| --- | --- |
| CC1CNCCc2ccc(Br)cc21 (racemic) [Example 32, (R,S) 8-Bromo-1-methyl-2,3,4,5tetrahydro-1H-3-benzazepine] | 2.1 |
| C=CCOc1cc2c(cc1Br)C(C)CNCC2 (racemic) [Example 5, (R,S) 7-Allyloxy-8-bromo-1-methyl-2,3,4,5tetrahydro-1H-3-benzazepine] | 12.1 |
| COc1cc2c(cc1Cl)C(C)CNCC2 (racemic) [Example 2, (R,S) 8-Chloro-7-methoxy-1-methyl-2,3,4,5-tetrahydro-1H-3-benzazepine] | 4.5 |
| CCC1CNCCc2cc(OC)c(Br)cc21 (racemic) [Example 19, (R,S) 8-Bromo-1-ethyl-7-methoxy-2,3,4,5-tetrahydro-1H-3-benzazepine] | 18 |
| COc1cc2c(cc1I)C(C)CNCC2 (racemic) [Example 3, (R,S) 8-Iodo-7-methoxy-1-methyl-2,3,4,5taetrhydro-1H-3-benzazepine] | 1.4 |
| C=CCOc1cc2c(cc1I)C(C)CNCC2 (racemic) [Example 12, (R,S) 7-Allyloxy-8-iodo-1-methyl-2,3,4,5-tetrahydro-1H-3-benzazepine] | 6.3 |
| CC1CNCCc2cc(O)c(Br)cc21 (racemic) [Example 4, (R,S) 8-Bromo-7-hydroxy-1-methyl-2,3,4,5tetrahydro-1H-3-benzazepine] | 2.1 |
| COc1cc2c(cc1Br)C(C)CNCC2 (racemic) [Example 1, (R,S) 8-Bromo-7-methoxy-1-methyl-2,3,4,5-tetrahydro-1H-3-benzazepine] | 4.2 |
